According to patent publication US8106080B2, “Compositions and methods for enhancing nitric oxide delivery” (priority 2006, dated 2012):
Like-named read-outs stand apart in the source and are kept apart here. Marks after values point to notes of the source that are not given here.

Columns and labels:
[1] = system: normal C57Black/6 mice
[2] = system: EDL muscles from normal C57Black/6 mice; assay: DNA synthesis ([3H]-thymidine) in whole-muscle EDL culture, normal mice; format: cell-based; details: NO donor alone; whole mouse EDL-muscle cultures; FIG. 2
Method: The proposed model of satellite cell activation as a function of NO is supported by a study of the effect of two known NO donor compounds-ISDN and DPTA-on whole mouse EDL-muscle cultures (FIG. 2), which studies were performed using in vitro methods described below. Results are reported in dpm (“disintegrations per minute”) per amount of DNA (here μg). […] In all cases, each sample was assayed in duplicate for counts, and in triplicate for DNA content (micrograms), the latter according to a standard curve of 5 or more standard concentrations that was established with a regression line having r^2 in the linear regression analysis greater than 0.97 at each assay.
Extensor digitorum longus (EDL) muscles were dissected cleanly and carefully from normal C57Black/6 mice (8 weeks old) without stretching or trauma that could easily activate satellite cells. Each muscle was aligned radially in one well of a 6-well Flex II culture plate (Flexcell International, N.C., USA), and the tendons were pinned so the muscle was at resting length. […]
(§1) DNA was isolated from the tissues. DNA synthesis was assayed by scintillation counting in Ready Safe scintillation cocktail (Beckman), and the concentration of DNA in each sample was assayed using a fluorescence assay (calibrated against a standard curve). The data were calculated as DNA synthesis per microgram of DNA in each sample.

[3] = system: EDL muscles from old (12-month-old) normal mice; assay: DNA synthesis in whole-muscle EDL culture from 12-month-old mice; format: cell-based, mouse; details: MyoNovin higher dose of 2, L-NAME both doses (very high), FIG. 19
Method: […] Each muscle was aligned radially in one well of a 6-well Flex II culture plate (Flexcell International, N.C., USA), and the tendons were pinned so the muscle was at resting length. The muscles were incubated in growth medium ([…], DMEM, containing 15% v/v horse serum (HyClone Laboratories Inc.) and 2% v/v chick embryo extract (ICN Biomedicals) at 37° C. in 5% CO2). Muscles in the wells were treated with or without an NO donor. [^3H]-Thymidine was added to the medium at the beginning of treatment, and cultures were maintained for 24 hours to allow incorporation of the isotope into new DNA. At the end of 24 hours, muscles were removed from wells, tendons were trimmed away, and the muscles were frozen at −20° C. for future analysis.
as §1
Data from an experiment on EDL muscles in culture, isolated from old (12-month-old) normal […] mice were conducted using the method described above for methocarbomol and ISDN.
In this experiment, muscles were treated with MyoNovin (2 doses) or the NOS inhibitor, L-NAME (2 doses).

[4] = system: mdx dystrophic mice; assay: DNA synthesis in back muscle after topical application, mdx mice; format: in vivo, mouse; details: transdermal, FIG. 18
Excerpt: Ointments were applied according to the following procedure. • 1. Animals were anesthetized with isoflurane and the mid-dorsal skin (on the back) was shaved, washed with soap and water, and air dried. • 2. The ointment was applied to the sterile pad on an adhesive bandage. Control bandages were coated with the ointment base only. After topical application in which the bandages were applied to the shaved back region, bandages were wrapped with medical adhesive. The animals had the Elizabethan collar fitted while under anesthesia, to prevent their later chewing at the adhesive tape. Eyes were irrigated regularly, as animals were unable to groom well while wearing the cone. • 3. Animals were treated for a total of 24 hours. There were no apparent effects of treatment on behaviour. • 4. Two hours before euthanasia, the mice were injected with 2 μCi per gram body weight of tritiated-thymidine (intra peritoneal) to label DNA synthesis. • 5. At 24 hours from the start of ointment application, animals were euthanized using cervical dislocation under anesthesia provided by pentobarbital injection. […] DNA synthesis was assayed by scintillation counting in Ready Safe scintillation cocktail (Beckman), and the concentration of DNA in each sample was assayed using a fluorescence assay (calibrated against a standard curve). The data were calculated as DNA synthesis per microgram of DNA in each sample. […]

[5] = system: liver tissue homogenate; assay: EPR assay of NO release, liver homogenate; format: biochemical, mouse; details: MGD spin-trap, 1 hour at 37° C., FIG. 20
Method: (§2) In the experiment liver and back muscle tissue taken from C57Black/6 mice were homogenized in ice-cold sucrose buffer. A small amount of MyoNovin was dissolved in dimethylsulfoxide and added to the tissue homogenates. An NO spin-trap molecule N-Methyl-D-glucamine dithiocarbamate (MGD) was added to the homogenate-MyoNovin mixture as a stable iron complex [10 μl of 50 mM MGD in saline; (containing MGD at 50 mM and Fe^2+ at 10 mM)] in order to trap any NO released from the tissue homogenate. The entire homogenate mixture plus NO spin-trap solution was then incubated for 1 hour at 37° C. After incubation, a sample of homogenate (16 μl) was loaded into a quartz capillary tube for determination of the EPR spectrum. EPR spectra were then obtained using a Bruker EMXEPR spectrometer (Bruker, Co., Billerica, Mass.) at room temperature (25° C.). The instrument settings were: 9.25 GHz microwave frequency; 100 kHz modulation frequency; 20 mW microwave power, 4 G modulation amplitude, 40 ms time constant, 42 s scan time, and 100 Gauss scan range, and 3410 G center field.
(§3) FIG. 20 is a compilation of the spectra obtained. Curve A represents a blank control sample (the homogenate and NO spin-trap for the EPR assay, without the addition of MyoNovin). Curve B is an NO standard (homogenate and NO spin-trap for the EPR assay, bubbled with NO gas). […]

[6] = system: back muscle tissue homogenate; assay: EPR assay of NO release, back muscle homogenate; format: biochemical, mouse
Method: as §2, §3

[7] = 0.25% carisoprodol, 1% DETA, topical, FIG. 8
[8] = 1% methocarbamol, 0.2% ISDN ointment, topical 24 h, FIG. 7
[9] = back muscle, topical ointment on back, 24 h, DNA synthesis per microgram of DNA
[10] = gut (positive control tissue), topical ointment on back, 24 h, per microgram of DNA
[11] = heart (negative control tissue), topical ointment on back, 24 h, per microgram of DNA
[12] = quadriceps, topical ointment on back, 24 h, DNA synthesis per microgram of DNA

NCCN(CCN)/[N+]([O-])=N/O [DETA, diethylenetriamine-NONOate]
DNA synthesis in back muscle (in words) [1, 7]: induce increased DNA synthesis | DNA synthesis in quadriceps (in words) [1, 7]: induce increased DNA synthesis

NCCCN(CCCN)/[N+]([O-])=N/O [DPTA, dipropylenetriamine-NONOate]
DNA synthesis (3H-thymidine incorporation) compared to a control muscle [2]: stimulate an increase in DNA synthesis

O=[N+]([O-])O[C@H]1CO[C@H]2[C@@H]1OC[C@H]2O[N+](=O)[O-] [ISDN, isosorbide dinitrate]
DNA synthesis (3H-thymidine incorporation) compared to a control muscle [2]: stimulate an increase in DNA synthesis | DNA synthesis in back muscle (in words) [1, 8]: increase in DNA synthesis

COC(=O)[C@@H](N)CCCNC(=N)N[N+](=O)[O-] [L-NAME, L-nitro-arginine methyl ester]
DNA synthesis in EDL muscles in culture [3]: decreased DNA synthesis

COc1ccccc1OCC(O)COC(N)=O (stereo not shown) [MC, methocarbamol]
DNA synthesis in back muscle (in words) [1, 8]: increase in DNA synthesis | DNA synthesis, Back Muscle, Mean ([1]; back muscle, mean of experiments, outliers (*) excluded, MC/ISDN mean covers samples (a) and (b)): 427.5 | DNA synthesis, Back Muscle, Experiment 1 [1, 9]: 430.5 | DNA synthesis, Back Muscle, Experiment 2 [1, 9]: 734* | DNA synthesis, Back Muscle, Experiment 3 [1, 9]: 422.7 | DNA synthesis, Back Muscle, Experiment 4 [1, 9]: 429.43 | DNA synthesis, Gut, Experiment 2 [1, 10]: 123 | DNA synthesis, Gut, Experiment 3 [1, 10]: 239.2 | DNA synthesis, Gut, Experiment 4 [1, 10]: 225.9 | DNA synthesis, Gut, Mean ([1]; gut, mean of experiments, MC/ISDN mean covers samples (a) and (b)): 196.0 | DNA synthesis, Heart, Experiment 2 [1, 11]: 186 | DNA synthesis, Heart, Experiment 3 [1, 11]: 221.3 | DNA synthesis, Heart, Experiment 4 [1, 11]: 240.76 | DNA synthesis, Heart, Mean ([1]; heart, mean of experiments, MC/ISDN mean covers samples (a) and (b)): 216.0 | DNA synthesis, Quadriceps, Mean ([1]; quadriceps, mean of experiments, MC/ISDN mean covers samples (a) and (b)): 456.3 | DNA synthesis, Quadriceps, Experiment 1 [1, 12]: 507 | DNA synthesis, Quadriceps, Experiment 2 [1, 12]: 573 | DNA synthesis, Quadriceps, Experiment 3 [1, 12]: 404.1 | DNA synthesis, Quadriceps, Experiment 4 [1, 12]: 340.9

COc1ccccc1OCC(CO[N+](=O)[O-])O[N+](=O)[O-] (stereo not shown) [MyoNovin, 1,2-di-O-nitro-3(o-methoxyphenoxy)-propanediol]
DNA synthesis in back muscle compared to the control [4]: decreased | DNA synthesis in EDL muscles in culture [3]: increased DNA synthesis | NO release (EPR) [5]: strong release of NO | NO release (EPR) ([6]; back muscle homogenate, MGD spin-trap, 1 hour at 37° C., FIG. 20): strong release of NO | time-course of NO release ([6]; back muscle homogenates, FIG. 21): more than two hours | side effects to animal behaviour, appearance or weight ([1]; transdermal MyoNovin, 24 h, normal mice): no apparent side effects | increase in muscle cell proliferation (DNA synthesis) ([1]; transdermal, over a 24-hour period, normal mice, FIG. 17): 37-39%

CCCC(C)(COC(N)=O)COC(=O)NC(C)C (stereo not shown) [carisoprodol]
DNA synthesis in back muscle (in words) [1, 7]: induce increased DNA synthesis | DNA synthesis in quadriceps (in words) [1, 7]: induce increased DNA synthesis
